Laboratory results from patent publication US20120108811A1, “PROCESS FOR PREPARING TEMOZOLOMIDE” (FORMOSA LABORATORIES INC., priority 2010, published 2012).

Legend:
Assay type in all cases: physicochemical
[1] = Long-term stability of Temozolomide prepared by conventional method, 2-8° C.; conditions: for AICA NMT 0.15% / Appearance (White to off-white powder) / Assay (HPLC) (98.0-102.0%) / Individual unknown impurity NMT 0.10% / Purity (HPLC) NLT 99.0% / Total impurities NMT 1.00% / Water content (KF), NMT 1.00%: conventional method, 2-8° C.
Experimental: The Temozolomide was stable at temperature 2-8° C.

[2] = Accelerated stability of Temozolomide prepared by conventional method, 25° C. ± 2° C., 60% ± 5% RH; conditions: for AICA NMT 0.15% / Appearance (White to off-white powder) / Assay (HPLC) (98.0-102.0%) / Individual unknown impurity NMT 0.10% / Purity (HPLC) NLT 99.0% / Total impurities NMT 1.00% / Water content (KF), NMT 1.00%: conventional method, 25° C. ± 2° C., RH 60% ± 5%
[3] = Long-term stability of Temozolomide prepared by the process of the present invention, 2-8° C.
Experimental: The Temozolomide was stable at temperature 2-8° C. for at least 18 months.

[4] = process of the present invention, 2-8° C., 0 time
[5] = process of the present invention, 2-8° C., 1 month

Question: Which results are given for Cn1nnc2c(C(N)=O)ncn2c1=O [Temozolomide, 8-carbamoyl-3-methyl-imidazo[5,1-d]-1,2,3,5-tetrazin-4(3H)-one]?
Answer: AICA NMT 0.15% ([1]; 0 time): 0.06%; Appearance (White to off-white powder) ([1]; 0 time): White; Assay (HPLC) (98.0-102.0%) ([1]; 0 time): 101.7%; Individual unknown impurity NMT 0.10% ([1]; 0 time): 0.01%; Purity (HPLC) NLT 99.0% ([1]; 0 time): 99.9%; Total impurities NMT 1.00% ([1]; 0 time): 0.08%; Water content (KF), NMT 1.00% ([1]; 0 time): 0.17%; AICA NMT 0.15% ([1]; 1 month): 0.02%; Appearance (White to off-white powder) ([1]; 1 month): White; Assay (HPLC) (98.0-102.0%) ([1]; 1 month): 101.4%; Individual unknown impurity NMT 0.10% ([1]; 1 month): 0.02%; Purity (HPLC) NLT 99.0% ([1]; 1 month): 100.0%; Total impurities NMT 1.00% ([1]; 1 month): 0.03%; Water content (KF), NMT 1.00% ([1]; 1 month): 0.36%; AICA NMT 0.15% ([1]; 2 months): 0.04%; Appearance (White to off-white powder) ([1]; 2 months): White; Assay (HPLC) (98.0-102.0%) ([1]; 2 months): 99.8%; Individual unknown impurity NMT 0.10% ([1]; 2 months): 0.01%; Purity (HPLC) NLT 99.0% ([1]; 2 months): 99.9%; Total impurities NMT 1.00% ([1]; 2 months): 0.06%; Water content (KF), NMT 1.00% ([1]; 2 months): 0.20%; AICA NMT 0.15% ([1]; 3 months): 0.01%; Appearance (White to off-white powder) ([1]; 3 months): Light beige; Assay (HPLC) (98.0-102.0%) ([1]; 3 months): 99.6%; Individual unknown impurity NMT 0.10% ([1]; 3 months): 0.01%; Purity (HPLC) NLT 99.0% ([1]; 3 months): 100.0%; Total impurities NMT 1.00% ([1]; 3 months): 0.03%; Water content (KF), NMT 1.00% ([1]; 3 months): 0.14%; AICA NMT 0.15% ([1]; 6 months): 0.01%; Appearance (White to off-white powder) ([1]; 6 months): Light beige; Assay (HPLC) (98.0-102.0%) ([1]; 6 months): 99.7%; Individual unknown impurity NMT 0.10% ([1]; 6 months): 0.01%; Purity (HPLC) NLT 99.0% ([1]; 6 months): 99.9%; Total impurities NMT 1.00% ([1]; 6 months): 0.05%; Water content (KF), NMT 1.00% ([1]; 6 months): 0.34%; AICA NMT 0.15% ([1]; 9 months): 0.04%; Appearance (White to off-white powder) ([1]; 9 months): Light beige; Assay (HPLC) (98.0-102.0%) ([1]; 9 months): 98.5%; Individual unknown impurity NMT 0.10% ([1]; 9 months): 0.01%; Purity (HPLC) NLT 99.0% ([1]; 9 months): 99.9%; Total impurities NMT 1.00% ([1]; 9 months): 0.05%; Water content (KF), NMT 1.00% ([1]; 9 months): 0.21%; AICA NMT 0.15% ([1]; 12 months): 0.06%; Appearance (White to off-white powder) ([1]; 12 months): Light beige; Assay (HPLC) (98.0-102.0%) ([1]; 12 months): 99.2%; Individual unknown impurity NMT 0.10% ([1]; 12 months): 0.02%; Purity (HPLC) NLT 99.0% ([1]; 12 months): 99.8%; Total impurities NMT 1.00% ([1]; 12 months): 0.09%; Water content (KF), NMT 1.00% ([1]; 12 months): 0.11%; Long-term stability (in words) ([1]; prepared by conventional method, temperature 2-8° C.): stable; AICA NMT 0.15% ([2]; 0 time): 0.06%; Appearance (White to off-white powder) ([2]; 0 time): White; Assay (HPLC) (98.0-102.0%) ([2]; 0 time): 101.7%; Individual unknown impurity NMT 0.10% ([2]; 0 time): 0.01%; Purity (HPLC) NLT 99.0% ([2]; 0 time): 99.9%; Total impurities NMT 1.00% ([2]; 0 time): 0.08%; Water content (KF), NMT 1.00% ([2]; 0 time): 0.17%; AICA NMT 0.15% ([2]; 1 month): 0.24%; Appearance (White to off-white powder) ([2]; 1 month): Off-white; Assay (HPLC) (98.0-102.0%) ([2]; 1 month): 101.7%; Individual unknown impurity NMT 0.10% ([2]; 1 month): 0.01%; Purity (HPLC) NLT 99.0% ([2]; 1 month): 99.8%; Total impurities NMT 1.00% ([2]; 1 month): 0.25%; Water content (KF), NMT 1.00% ([2]; 1 month): 0.25%; AICA NMT 0.15% ([2]; 2 months): 0.64%; Appearance (White to off-white powder) ([2]; 2 months): Off-white; Assay (HPLC) (98.0-102.0%) ([2]; 2 months): 99.4%; Individual unknown impurity NMT 0.10% ([2]; 2 months): 0.01%; Purity (HPLC) NLT 99.0% ([2]; 2 months): 99.3%; Total impurities NMT 1.00% ([2]; 2 months): 0.67%; Water content (KF), NMT 1.00% ([2]; 2 months): 0.24%; Stability (in words) ([2]; prepared by conventional method, temperature 25 degree ° C.): easily to degrade to out of specification; Time stable ([3]; prepared by the process of the present invention, temperature 2-8° C.): at least 18 months; AICA NMT 0.15% [3, 4]: 0.01%; Appearance (White to off-white powder) [3, 4]: White; Assay (HPLC) (98.0-102.0%) [3, 4]: 99.7%; Purity (HPLC) NLT 99.0% [3, 4]: 100.0%; Total impurities NMT 1.00% [3, 4]: 0.01%; Water content (KF), NMT 1.00% [3, 4]: 0.09%; AICA NMT 0.15% [3, 5]: 0.01%; Appearance (White to off-white powder) [3, 5]: White; Assay (HPLC) (98.0-102.0%) [3, 5]: 98.6%; Purity (HPLC) NLT 99.0% [3, 5]: 100.0%; Total impurities NMT 1.00% [3, 5]: 0.01%
